The source of these data is patent EP4772514A1, “MACROCYCLIC COMPOUNDS, PREPARATION METHOD THEREFOR, AND USE THEREOF” (Genfleet Therapeutics (Shanghai) Inc., priority 2023, dated 2025).

For orientation: IC50 means the concentration needed to halve the response being measured.

Test [1] deals with NCI-H441 cells. In words: 3D cell proliferation assay (CellTiter Glo-3D) in NCI-H441 cells. Particulars: NCI-H441, human lung cancer cell strain, KRAS G12V mutation, 3D culture, 2% FBS, 5 days, read-out: H441 AP IC50. In kind it is cell-based. An excerpt:
MIA PaCa-2 cells were purchased from ATCC, Cat. No. CRL-1420; AsPC-1 cells were purchased from ATCC, Cat. No. CRL-1682; NCI-H441 cells were purchased from ATCC, Cat. No. HTB-174; NCI-H1975 cells were purchased from ATCC, Cat. No. CRL-5908; DMEM medium was purchased from Gibco, Cat. No. 11995-065; RPMI-1640 medium was purchased from Gibco, Cat. No. 11875-093; FBS was purchased from Gibco, Cat. No. 10099-141C; penicillin/streptomycin double-antibiotic solution (PS) was purchased from Gibco, Cat. No. 15140-122; Horse serum was purchased from Gibco, Cat. No. 16050130; trypsin (containing EDTA) was purchased from Gibco, Cat. No. 25200-072; DMSO was purchased from VWRAMRESCO, Cat. No. 0231-500ML; 384-well cell culture plates were purchased from Corning, Cat. No. 3830; white-bottomed, opaque 384-well assay plates were purchased from Corning, Cat. No. 3570; CellTiter Glo-3D kit was purchased from Promega, Cat. No. G9683; cell counter was purchased from CHEMOMETEC, model: NC-200; microplate reader was purchased from PerkinElmer, model: EnVision.
MIA PaCa-2, a human pancreatic cancer cell strain endogenously containing a KRAS^G12Cmutation, was cultured in a complete medium containing DMEM + 10% FBS + 2.5% Horse serum + 1% PS. AsPC-1, a human pancreatic cancer cell strain endogenously containing a KRAS^G12D mutation, was cultured in a complete medium containing RPMI-1640 + 10% FBS + 1% PS. NCI-H441 cells, a human lung cancer cell strain endogenously containing a KRAS^G12V mutation, were cultured in a complete medium containing RPMI-1640 + 10% FBS + 1% PS. NCI-H1975, a KRAS wild-type human lung cancer cell strain whose cell proliferation […], was cultured in a complete medium containing RPMI-1640 + 10% FBS + 1% PS.
The cells were digested with trypsin (containing EDTA), collected in their respective low-serum complete media containing 2% FBS (for MIA Paca-2 cell culture: DMEM + 2% FBS + 0.5% Horse serum + 1% PS), and counted. After the cell density was adjusted as required, MIA PaCa-2 cells (200 cells/well), AsPC-1 cells (800 cells/well), NCI-H441 cells (800 cells/well), or NCI-H1975 cells (400 cells/well) were seeded into a 384-well cell culture plate, with the volume of the medium in each well being 45 µL. The cell culture plate was incubated in an incubator at 37 °C with 5% CO2 overnight. A series of 3.16-fold gradient dilutions of a 1000× compound stock solution were prepared with DMSO, and then diluted 100-fold with the complete medium containing 2% FBS described above to give 10× compound stock solutions. On the day after cell seeding, 5 µL of the 10× compound stock solution was added to each cell culture well. As a result, the final concentration of the compound in the cell culture well became 1×, and the DMSO content in the well was 0.1%. In addition to the compound-treated wells described above, cell-containing DMSO control wells (with 5 µL of the complete medium containing 1% DMSO added to each well) and cell-free medium control wells (containing 50 µL of the complete medium with 2% FBS) were also set. The culture plate was incubated in an incubator at 37 °C with 5% CO2 for another 5 days, and then 30 µL of CellTiter-Glo working solution was added to each well. The mixture was well mixed, incubated for 30 min, left to stand at room temperature for 30 min, and then transferred to a white-bottomed, opaque 384-well assay plate at 40 µL/well. The chemiluminescence values (RLU) were measured using a microplate reader, and the cell proliferation inhibition rate for each well was calculated: IR(%) = (RLUDMSO - RLUcompound)/(RLUDMSO - RLUblank) × 100%, where RLUDMSO is the average RLU signal value from the DMSO control well samples, RLUblank is the average RLU signal value from the medium control well samples, and RLUcompound is the RLU signal value from the compound-treated well samples. […]
On the technique in general: ATP-based viability assays read luminescence as a measure of living cells.

In test [2] the test system is p-ERK. Description: Cell p-ERK assay (HTRF, Advance ERK phospho-T202/Y204 kit) in NCI-H441 cells. The class given is cell-based. As to conditions: NCI-H441, human non-small cell lung cancer cell strain, KRAS G12V mutation, 3 h compound incubation. The procedure: AsPC-1 cells were purchased from ATCC, Cat. No. CRL-1682; NCI-H441 cells were purchased from ATCC, Cat. No. HTB-174; RPMI-1640 medium was purchased from Gibco, Cat. No. 11875-093; FBS was purchased from Gibco, Cat. No. 10099-141C; penicillin/streptomycin double-antibiotic solution (PS) was purchased from Gibco, Cat. No. 15140-122; trypsin (containing EDTA) was purchased from Gibco, Cat. No. 25200-072; DMSO was purchased from VWRAMRESCO, Cat. No. 0231-500ML; 96-well cell culture plates were purchased from Corning, Cat. No. 3599; white-bottomed, opaque 96-well plates were purchased from Cisbio, Cat. No. 66PL96025; Advance ERK phospho-T202/Y204 kit was purchased from Cisbio, Cat. No. 64AERPEH; cell counter was purchased from CHEMOMETEC, model: NC-200; microplate reader was purchased from PerkinElmer, model: EnVision.
AsPC-1, a human pancreatic cancer cell strain endogenously containing a KRAS^G12D mutation, was cultured in a complete medium containing RPMI-1640 + 10% FBS + 1% PS. NCI-H441, a human non-small cell lung cancer cell strain endogenously containing a KRAS^G12V mutation, was cultured in a complete medium containing RPMI-1640 + 10% FBS + 1% PS.
The cells were digested with trypsin (containing EDTA), collected in their corresponding complete media, and counted. The density of the cell suspensions was adjusted with their corresponding complete media, and AsPC-1 cells (10000 cells/well) or NCI-H441 cells (20000 cells/well) were seeded into a 96-well cell culture plate, with the volume of the medium in each well being 80 µL. The cell culture plate was incubated in an incubator at 37 °C with 5% CO2 overnight. A series of 3.16-fold gradient dilutions of a 1000× compound stock solution were prepared with DMSO, and then diluted 200-fold with the complete medium described above to give 5× compound stock solutions. On the day after cell seeding, 20 µL of the 5× compound stock solution was added to each cell culture well. As a result, the final concentration of the compound in the cell culture well became 1×, and the DMSO content in the well was 0.1%. In addition to the compound-treated wells described above, cell-containing DMSO control wells were also set. A complete medium containing 0.5% DMSO was added at 20 µL/well. After the mixture was well mixed, the culture plate was incubated in the incubator at 37 °C with 5% CO2 for another 3 h. The medium was then removed from the culture wells, and 50 µL of cell lysis buffer (from Advance ERK phospho-T202/Y204 kit) was added to each well. The mixture was well mixed, incubated for 30 min, and then transferred to a white-bottomed, opaque 96-well assay plate at 16 µL/well, and separately, 16 µL of cell lysis buffer was added to additional wells (serving as blank wells) in the assay plate. After the transfer was completed, 4 µL of p-ERK HTRF antibody mixture (from Advance ERK phospho-T202/Y204 kit) was added to each well of the assay plate, followed by a 4-hour incubation. The HTRF signal values (RLU) were then measured using a microplate reader, and the inhibition rate of the compound against p-ERK levels was calculated as follows: IR(%) = (RLUDMSO - RLUcompound)/(RLUDMSO - RLUblank) × 100%, where RLUDMSO is the average HTRF signal value from the DMSO control well samples, RLU is the average HTRF signal value from the blank well samples, and RLUcompound is the HTRF signal value from the compound-treated well samples. Using an XLfit software, the IR(%) values were plotted against the logarithm of the compound concentrations, and the dose-response curves were fitted using the four-parameter method to calculate the IC50 values.
Background: TR-FRET usually uses a lanthanide donor and a delayed reading to cut background.

Where a name gives a salt, the structure may show the parent alone. Read-outs that look alike come from different tables or passages of the source.

`CO[C@@H](C)c1ncc(C#CCN2CCS(=O)(=O)CC2)cc1-c1c2c(nn1C(C)C)/C=C/c1csc(n1)C[C@H](NC(=O)[C@H](Cc1cccc3ncccc13)C(C)C)C(=O)N1CCC[C@H](N1)C(=O)OCC(C)(C)C2` [Compound Z44-2, (2R)-N-((4^2Z,8^3S,2E,6S)-1^5-(5-(3-(1,1-dioxidothiomorpholino)prop-1-yn-1-yl)-2-((S)-1-methoxyethyl)pyridin-3-yl)-1^1-isopropyl-12,12-dimethyl-7,9-dioxo-8^1,8^2,8^3,8^4,8^5,8^6-hexahydro-1^1H-10-oxa-4(4,2)-thiazola-8(1,3)-pyridazina-1(3,4)-pyrazolocyclotridec-2-en-6-yl)-3-methyl-2-(quinolin-5-ylmethyl)butanamide formate]: the values for the IC50 in test [1] and in test [2] were 76.3 nM and 15.4 nM, respectively.

As to `CCn1nc2c(c1-c1cc(C#CCN3CCS(=O)(=O)CC3)cnc1[C@H](C)OC)CC(C)(C)COC(=O)[C@@H]1CCCN(N1)C(=O)[C@@H](NC(=O)[C@@H](OCc1ccccc1)C(C)C)Cc1nc(cs1)/C=C/2` (atropisomer, axis not shown; (Ra)) [Compound Z46, (2S)-2-(benzyloxy)-N-((4^2Z,8^3S,2E,6S)-1^5-(Ra)-(5-(3-(1,1-dioxidothiomorpholino)prop-1-yn-1-yl)-2-((S)-1-methoxyethyl)pyridin-3-yl)-1^1-ethyl-12,12-dimethyl-7,9-dioxo-8^1,8^2,8^3,8^4,8^5,8^6-hexahydro-1^1H-10-oxa-4(4,2)-thiazola-8(1,3)-pyridazina-1(3,4)-pyrrolacyclotridecaphan-2-en-6-yl)-3-methylbutanamide], the half-maximal inhibitory concentration (IC50) in test [1] (Homo sapiens, NCI-H441, 120 h) stood at 176 nM; in test [2] (Homo sapiens, NCI-H441, 3 h), 168 nM.

Regarding `CCn1nc2c(c1-c1cc(C#CCN3CCS(=O)(=O)CC3)cnc1[C@H](C)OC)CC(C)(C)COC(=O)[C@@H]1CCCN(N1)C(=O)[C@@H](NC(=O)[C@H](C(C)C)N(C)c1ccccc1)Cc1nc(cs1)/C=C/2` (atropisomer, axis not shown; (Ra)) [Compound Z51, (2S)-N-((4^2Z,8^3S,2E,6S)-(Ra)-1^5-(5-(3-(1,1-dioxidothiomorpholine)prop-1-yn-1-yl)-2-((S)-1-methoxyethyl)pyridin-3-yl)-1^1-ethyl-12,12-dimethyl-7,9-dioxo-8^1,8^2,8^3,8^4,8^5,8^6-hexahydro-1^1H-10-oxa-4(4,2)-thiazola-8(1,3)-pyridazina-1(3,4)-pyrazolecyclotridec-2-en-6-yl)-3-methyl-2-(methyl(phenyl)amino)butanamide], the IC50 in test [1] (Homo sapiens, NCI-H441, 120 h) came out at 3.46 nM; in test [2] (Homo sapiens, NCI-H441, 3 h), 3.02 nM.

On to `CCn1c(OC)c2c(c1-c1cc(C#CCN3CCS(=O)(=O)CC3)cnc1[C@H](C)OC)CC(C)(C)COC(=O)[C@@H]1CCCN(N1)C(=O)[C@@H](NC(=O)[C@H]1[C@H](C)[C@@H]1C)Cc1nc(cs1)/C=C/2` (atropisomer, axis not shown; (Ra)) [Compound Z191, (1r,2R,3S)-N-((4^2Z,8^3S,2E,6S)-(Ra)-1^5-(5-(3-(1,1-dioxidothiomorpholino)prop-1-yn-1-yl)-2-((S)-1-methoxyethyl)pyridin-3-yl)-1^1-ethyl-1^2-methoxy-12,12-dimethyl-7,9-dioxo-8^1,8^2,8^3,8^4,8^5,8^6-hexahydro-1^1H-10-oxa-4(4,2)-thiazola-8(1,3)-pyridazina-1(3,4)-pyrrolacyclotridecaphan-2-en-6-yl)-2,3-dimethylcyclopropane-1-carboxamide], for which the IC50 in test [1] (Homo sapiens, NCI-H441, 120 h) was determined as 7.19 nM; in test [2] (Homo sapiens, NCI-H441, 3 h), 3.92 nM.

In the case of `CCn1nc2c(c1-c1cc(C#CCN3CCS(=O)(=O)CC3)cnc1[C@H](C)OC)CC(C)(C)COC(=O)[C@@H]1CCCN(N1)C(=O)[C@@H](NC(=O)[C@@H](NC(=O)OC(C)(C)C)C(C)C)Cc1nc(cs1)/C=C/2` (atropisomer, axis not shown; (Ra)) [Compound Z53], the concentration for half-maximal inhibition (IC50) in test [1] (Homo sapiens, NCI-H441, 120 h) amounted to 115 nM; in test [2] (Homo sapiens, NCI-H441, 3 h), 182 nM.
